# Structures can show the parent of a compound that is named as a salt. Where two headings read alike, the source gives them in different places.
# What was measured:
# [1] = molecular target: PI3Kδ (p110δ/p85α) Recombinant Human Protein (Homo sapiens (Human), UniProt O00329); assay: PI3Kδ Scintillation Proximity Assay; assay type: biochemical
# How it was run: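 Radiometric read-out: 33P-labelled PIP3 product captured on WGA SPA beads and counted, with IC50 fitted from percent activity relative to DMSO control. Enzyme (3.4 nM) was incubated 120 min at room temperature with 20 μM PIP2 and 2 μM ATP at pH 6.7, 2% DMSO.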
# [2] = molecular target: PI3Kγ (p110γ) Recombinant Human Protein (Homo sapiens (Human), UniProt P48736); assay: PI3K-γ Scintillation Proximity Assay; assay type: biochemical; settings: read-out: PI3Kγ IC50
# How it was run: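 Radiometric SPA readout: […] bound to WGA beads after overnight shaking, IC50 derived from % activity of DMSO control. Reaction used human p110γ, 2 μM ATP, 20 μM PIP2, pH 6.7 MOPS buffer with MgCl2, DTT, CHAPS, 2% DMSO, room temperature.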
# [3] = test system: Phosphorylated Ribosomal Protein S6 (RPS6); assay: THP-1 RPS6 ELISA Assay; assay type: cell-based, Human; settings: THP-1 cells, read-out: PI3Kγ_THP1_RPS6_ELISA IC50
# How it was run: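 IC50 values come from a curve of percent inhibition against log compound concentration, using phospho-RPS6 ELISA (450 nm) on THP-1 lysates. Cells were serum-starved overnight, exposed to compound for 2 h at 37 °C, then challenged 15 min with 10 nM MCP-1.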
# Chain of PI3Kγ (p110γ) Recombinant Human Protein (P48736 whole entry): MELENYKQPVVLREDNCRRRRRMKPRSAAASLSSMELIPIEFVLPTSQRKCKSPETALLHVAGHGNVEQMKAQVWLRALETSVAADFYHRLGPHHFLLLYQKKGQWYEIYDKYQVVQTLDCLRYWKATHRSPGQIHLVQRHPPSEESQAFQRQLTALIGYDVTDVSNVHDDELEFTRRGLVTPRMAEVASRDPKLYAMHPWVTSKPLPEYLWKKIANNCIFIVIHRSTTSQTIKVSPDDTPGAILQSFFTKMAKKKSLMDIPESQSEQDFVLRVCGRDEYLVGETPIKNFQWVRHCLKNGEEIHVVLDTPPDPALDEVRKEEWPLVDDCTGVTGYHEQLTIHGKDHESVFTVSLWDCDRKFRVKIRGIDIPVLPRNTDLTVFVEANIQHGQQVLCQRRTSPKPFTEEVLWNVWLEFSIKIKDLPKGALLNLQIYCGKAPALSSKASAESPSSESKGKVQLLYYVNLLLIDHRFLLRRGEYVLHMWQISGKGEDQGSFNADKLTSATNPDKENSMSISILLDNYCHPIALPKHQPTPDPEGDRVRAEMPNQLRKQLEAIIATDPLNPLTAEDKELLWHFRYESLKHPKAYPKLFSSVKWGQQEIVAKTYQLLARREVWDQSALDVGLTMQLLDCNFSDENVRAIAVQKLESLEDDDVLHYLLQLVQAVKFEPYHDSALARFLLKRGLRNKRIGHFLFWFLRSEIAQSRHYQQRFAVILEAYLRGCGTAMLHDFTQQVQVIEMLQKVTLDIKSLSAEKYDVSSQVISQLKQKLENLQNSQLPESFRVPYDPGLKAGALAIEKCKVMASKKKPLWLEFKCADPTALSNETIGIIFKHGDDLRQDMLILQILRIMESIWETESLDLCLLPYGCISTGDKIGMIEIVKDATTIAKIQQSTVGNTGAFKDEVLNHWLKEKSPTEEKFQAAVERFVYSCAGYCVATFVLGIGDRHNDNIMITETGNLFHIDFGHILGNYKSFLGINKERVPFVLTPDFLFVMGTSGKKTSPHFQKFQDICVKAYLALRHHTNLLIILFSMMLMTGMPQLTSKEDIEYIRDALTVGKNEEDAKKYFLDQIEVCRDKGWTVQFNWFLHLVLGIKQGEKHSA
# Chain of PI3Kδ (p110δ/p85α) Recombinant Human Protein (O00329 whole entry): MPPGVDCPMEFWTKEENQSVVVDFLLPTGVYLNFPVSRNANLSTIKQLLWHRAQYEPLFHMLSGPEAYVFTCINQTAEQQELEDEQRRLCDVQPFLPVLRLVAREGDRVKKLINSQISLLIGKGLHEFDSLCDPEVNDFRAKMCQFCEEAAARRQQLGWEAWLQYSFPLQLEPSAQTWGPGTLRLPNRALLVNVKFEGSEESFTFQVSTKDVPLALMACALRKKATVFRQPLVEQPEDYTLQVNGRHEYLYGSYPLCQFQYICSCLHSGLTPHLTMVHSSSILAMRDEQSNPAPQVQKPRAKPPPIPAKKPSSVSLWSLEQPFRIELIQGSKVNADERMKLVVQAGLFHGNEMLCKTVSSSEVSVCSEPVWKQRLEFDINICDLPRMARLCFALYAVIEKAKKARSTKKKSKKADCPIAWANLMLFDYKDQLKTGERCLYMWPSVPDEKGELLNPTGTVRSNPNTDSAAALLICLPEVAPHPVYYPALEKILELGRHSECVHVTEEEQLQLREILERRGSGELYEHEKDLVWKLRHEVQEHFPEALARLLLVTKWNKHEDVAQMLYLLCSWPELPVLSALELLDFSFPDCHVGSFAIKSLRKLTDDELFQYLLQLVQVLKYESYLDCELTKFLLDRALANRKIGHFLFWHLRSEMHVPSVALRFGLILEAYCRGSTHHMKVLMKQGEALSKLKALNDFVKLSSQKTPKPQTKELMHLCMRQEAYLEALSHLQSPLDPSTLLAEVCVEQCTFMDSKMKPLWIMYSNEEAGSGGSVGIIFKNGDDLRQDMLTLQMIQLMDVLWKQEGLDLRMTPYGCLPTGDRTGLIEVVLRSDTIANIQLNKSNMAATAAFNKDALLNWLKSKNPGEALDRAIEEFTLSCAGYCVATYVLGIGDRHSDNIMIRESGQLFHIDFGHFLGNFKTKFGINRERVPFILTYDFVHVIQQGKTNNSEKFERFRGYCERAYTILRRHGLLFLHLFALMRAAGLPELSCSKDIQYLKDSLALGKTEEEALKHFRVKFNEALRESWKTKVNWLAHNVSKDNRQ
# Chain of PI3Kδ (p110δ/p85α) Recombinant Human Protein (P27986 whole entry partner): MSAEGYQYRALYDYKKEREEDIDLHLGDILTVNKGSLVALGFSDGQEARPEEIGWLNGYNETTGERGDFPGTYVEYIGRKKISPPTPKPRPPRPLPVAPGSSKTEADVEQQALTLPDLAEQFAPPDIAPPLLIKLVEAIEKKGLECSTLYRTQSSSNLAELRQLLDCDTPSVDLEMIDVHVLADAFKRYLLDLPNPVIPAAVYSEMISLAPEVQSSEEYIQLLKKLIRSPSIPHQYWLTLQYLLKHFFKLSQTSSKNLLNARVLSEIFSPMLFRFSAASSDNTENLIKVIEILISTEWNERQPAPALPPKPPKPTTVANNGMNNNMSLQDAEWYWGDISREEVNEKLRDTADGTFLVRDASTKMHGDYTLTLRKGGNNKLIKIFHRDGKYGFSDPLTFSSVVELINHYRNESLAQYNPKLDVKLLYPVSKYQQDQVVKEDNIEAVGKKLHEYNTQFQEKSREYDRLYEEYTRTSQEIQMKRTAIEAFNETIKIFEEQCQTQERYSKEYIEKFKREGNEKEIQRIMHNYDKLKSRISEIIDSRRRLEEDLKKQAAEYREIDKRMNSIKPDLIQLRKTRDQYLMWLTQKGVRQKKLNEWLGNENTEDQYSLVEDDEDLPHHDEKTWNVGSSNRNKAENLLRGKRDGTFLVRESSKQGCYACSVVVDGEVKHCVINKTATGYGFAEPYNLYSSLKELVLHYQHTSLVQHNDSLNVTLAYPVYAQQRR
SMILES,IC50 [1] [nM],IC50 [2] [nM],IC50 ([3]; Homo sapiens) [nM],IC50 [3] [nM]
"Cc1cc(C)c(S(=O)(=O)NC23CCC(CO)(C2)C3)cc1-c1cnc2c(N)ncnn12 [Example 363, 5-(4-Aminoimidazo[1,2-f][1,2,4]triazin-7-yl)-N-(4-(hydroxymethyl)bicyclo[2.1.1]hexan-1-yl)-2,4-dimethylbenzenesulfonamide]",500 to 2000,< 100,–,100 to 500
"Cc1ccc(S(=O)(=O)N2CCC3(CCCO3)CC2)cc1-c1cnc2c(N)ncnn12 [Example 194, 7-(5-((1-Oxa-8-azaspiro[4.5]decan-8-yl)sulfonyl)-2-methylphenyl)imidazo[2,1-f][1,2,4]triazin-4-amine]",500 to 2000,< 100,100 to 500,–
"Cc1ccc(S(=O)(=O)N[C@H]2CC[C@H](O)CC2)cc1-c1cnc2c(N)nc(-c3ccncc3)cn12 [Example 25, 3-(8-Amio-6-pyridin-4-ylimidazo[1,2-a]pyrazin-3-yl)-N-(trans-4-hydroxycyclohexyl)-4-methylbenzenesulfonamide]",100 to 500,< 100,100 to 500,–
"Cc1ccc(S(=O)(=O)N2CCOCC2(C)C)cc1-c1cnc2c(N)ncnn12 [Example 156, 7-(5-((3,3-dimethylmorpholino)sulfonyl)-2-methylphenyl)imidazo[2,1-f][1,2,4]triazin-4-amine]",500 to 2000,< 100,500 to 1000,–
"Cc1ccc(S(=O)(=O)NC23CCC(c4cnco4)(CC2)OC3)cc1-c1cnc2c(N)ncnn12 [Example 440, 3-(4-Aminoimidazo[1,2-f][1,2,4]triazin-7-yl)-4-methyl-N-(1-(oxazol-5-yl)-2-oxabicyclo[2.2.2]octan-4-yl)benzenesulfonamide trifluoroacetate salt]",100 to 500,< 100,100 to 500,–
"Cc1ccc(S(=O)(=O)NC23CCC(C(N)=O)(C2)C3)cc1-c1cnc2c(N)ncnn12 [Example 110, 4-(3-(4-Aminoimidazo[1,2-f][1,2,4]triazin-7-yl)-4-methylphenylsulfonamido)bicyclo[2.1.1]hexane-1-carboxamide trifluoroacetate salt]",100 to 500,< 100,–,> 1000
"Cc1ccc(S(=O)(=O)NC23CCC(CO)(CC2)CC3)cc1-c1cnc2c(N)ncnn12 [Example 186, 3-(4-aminoimidazo[2,1-f][1,2,4]triazin-7-yl)-N-(4-(hydroxymethyl)bicyclo[2.2.2]octan-1-yl)-4-methylbenzenesulfonamide]",100 to 500,< 100,100 to 500,–
"Cc1ccc(S(=O)(=O)N(C)[C@H]2CC[C@H](O)CC2)cc1-c1cnc2c(N)ncnn12 [Example 69, 3-(4-Aminoimidazo[2,1-f][1,2,4]triazin-7-yl)-N-(trans-4-hydroxycyclohexyl)-N,4-dimethylbenzenesulfonamide]",500 to 2000,< 100,100 to 500,–
"[2H]C([2H])([2H])c1ccc(S(=O)(=O)NC23CCC(O)(C2)C3)cc1-c1cnc2c(N)ncnn12 [Example 374, 3-(4-Aminoimidazo[2,1-f][1,2,4]triazin-7-yl)-N-(4-hydroxybicyclo[2.1.1]hexan-1-yl)-4-(methyl-d3)benzenesulfonamide]",500 to 2000,< 100,500 to 1000,–
"Cc1ccc(S(=O)(=O)N[C@H]2CC[C@H](O)CC2)cc1-c1cnc2c(N)nc(-c3cccs3)cn12 [Example 27, 3-[8-Amino-6-(2-thienyl)imidazo[1,2-a]pyrazin-3-yl]-N-(trans-4-hydroxycyclohexyl)-4-methylbenzenesulfonamide]",100 to 500,< 100,< 100,–
"Cc1ccc(S(=O)(=O)NC2CCOCC2)cc1-c1cnc2c(N)nccn12 [Example 49, 3-(8-Aminoimidazo[1,2-a]pyrazin-3-yl)-4-methyl-N-(tetrahydro-2H-pyran-4-yl)benzenesulfonamide]",500 to 2000,< 100,> 1000,–
"Cc1cn2c(-c3cc(S(=O)(=O)N[C@H]4CC[C@H](O)CC4)ccc3C)cnc2c(N)n1 [Example 37, 3-(8-Amino-6-methylimidazo[1,2-a]pyrazin-3-yl)-N-(trans-4-hydroxycyclohexyl)-4-methylbenzenesulfonamide]",< 100,< 100,100 to 500,–
"Cc1nc(N)c2ncc(-c3cc(S(=O)(=O)N[C@H]4CC[C@H](CC#N)OC4)c(Cl)cc3C)n2n1 [Example 389, 5-(4-amino-2-methylimidazo[2,1-f][1,2,4]triazin-7-yl)-2-chloro-N-((3S,6R)-6-(cyanomethyl)tetrahydro-2H-pyran-3-yl)-4-methylbenzenesulfonamide]",< 100,< 100,< 100,–
"C[C@]1(O)CC[C@H](NS(=O)(=O)c2cc(-c3cnc4c(N)ncnn34)ccc2F)CC1 [Example 376, 5-(4-aminoimidazo[2,1-f][1,2,4]triazin-7-yl)-2-fluoro-N-((1r,4r)-4-hydroxy-4-methylcyclohexyl)benzenesulfonamide]",100 to 500,< 100,–,> 1000
"Cc1ccc(S(=O)(=O)N[C@H]2CC[C@H](O)CC2)cc1-c1cnc2c(N)nc(-c3cccc(F)c3)cn12 [Example 21, 3-[8-Amino-6-(3-fluorophenyl)imidazo[1,2-a]pyrazin-3-yl]-N-(trans-4-hydroxycyclohexyl)-4-methylbenzenesulfonamide]",< 100,< 100,< 100,–
"Cc1ccc(S(=O)(=O)NC23CCC(C#N)(C2)C3)cc1-c1cnc2c(N)ncnn12 [Example 251, 3-(4-Aminoimidazo[2,1-f][1,2,4]triazin-7-yl)-N-(4-cyanobicyclo[2.1.1]hexan-1-yl)-4-methylbenzenesulfonamide trifluoroacetate salt]",100 to 500,< 100,< 100,–
"Nc1nccn2c(-c3cc(S(=O)(=O)N[C@H]4CC[C@H](O)CC4)ccc3F)cnc12 [Example 42, 3-(8-Aminoimidazo[1,2-a]pyrazin-3-yl)-4-fluoro-N-(trans-4-hydroxycyclohexyl)benzenesulfonamide]",500 to 2000,< 100,500 to 1000,–

# Continued, values first:
IC50 [1] [nM],IC50 [2] [nM],IC50 ([3]; Homo sapiens) [nM],IC50 [3] [nM],SMILES
100 to 500,< 100,100 to 500,–,"Cc1nc(N)c2ncc(-c3cc(S(=O)(=O)NCC(C)(C)O)cc(F)c3C)n2n1 [Example 468, 3-(4-Amino-2-methylimidazo[2,1-f][1,2,4]triazin-7-yl)-5-fluoro-N-(2-hydroxy-2-methylpropyl)-4-methylbenzenesulfonamide]"
100 to 500,< 100,100 to 500,–,"Cc1ccc(S(=O)(=O)N[C@@H](C)CO)cc1-c1cnc2c(N)nc(C(F)(F)F)nn12 [Example 249, (S)-3-(4-Amino-2-(trifluoromethyl)imidazo[2,1-f][1,2,4]triazin-7-yl)-N-(1-hydroxypropan-2-yl)-4-methylbenzenesulfonamide]"
100 to 500,< 100,< 100,–,"Cc1ccc(S(=O)(=O)NC23CC(C(F)F)(C2)C3)cc1-c1cnc2c(N)nc(C(F)(F)F)cn12 [Example 278, 3-(8-Amino-6-(trifluoromethyl)imidazo[1,2-a]pyrazin-3-yl)-N-(3-(difluoromethyl)bicyclo[1.1.1]pentan-1-yl)-4-methylbenzenesulfonamide trifluoroacetate salt]"
< 100,< 100,< 100,–,"Cc1ccc(S(=O)(=O)N2CCCC(N)C2)cc1-c1cnc2c(N)nc(C(F)(F)F)cn12 (stereo not drawn) [Example 516, 3-(5-((3-Aminopiperidin-1-yl)sulfonyl)-2-methylphenyl)-6-(trifluoromethyl)imidazo[1,2-a]pyrazin-8-amine trifluoroacetate]"
500 to 2000,< 100,500 to 1000,–,"CNC(=O)c1cn2c(-c3cc(S(=O)(=O)NC4CC(F)(F)C4)ccc3C)cnc2c(N)n1 [Example 447, 8-Amino-3-(5-(N-(3,3-difluorocyclobutyl)sulfamoyl)-2-methylphenyl)-N-methylimidazo[1,2-a]pyrazine-6-carboxamide trifluoroacetate salt]"
100 to 500,< 100,–,100 to 500,"Cc1ccc(S(=O)(=O)NC23CC(CF)(C2)C3)cc1-c1cnc2c(N)nc(C(F)(F)F)nn12 [Example 331, 3-(4-Amino-2-(trifluoromethyl)imidazo[1,2-f][1,2,4]triazin-7-yl)-N-(3-(fluoromethyl)bicyclo[1.1.1]pentan-1-yl)-4-methylbenzenesulfonamide trifluoroacetate salt]"
100 to 500,< 100,100 to 500,–,"Cc1ccc(S(=O)(=O)N[C@H]2CC[C@H](O)CC2)cc1-c1cnc2c(N)ncnn12 [Example 39, 3-(4-Aminoimidazo[2,1-f][1,2,4]triazin-7-yl)-N-(trans-4-hydroxycyclohexyl)-4-methylbenzenesulfonamide]"
100 to 500,< 100,–,< 100,"Cc1ccc(S(=O)(=O)NCC(C)(C)O)cc1-c1cnc2c(N)nc(C(F)(F)F)nn12 [Example 317, 3-(4-Amino-2-(trifluoromethyl)imidazo[1,2-f][1,2,4]triazin-7-yl)-N-(2-hydroxy-2-methylpropyl)-4-methylbenzenesulfonamide trifluoroacetate salt]"
